Where a name gives a salt, the structure may show the parent alone.
Target: T1, recombinant full-length WRN protein (1-1432) (Homo sapiens, UniProt Q14191)
T1 construct: recombinant full-length WRN protein (1-1432)
Assay: WRN unwinding activity, fluorogenic 384-well assay (Example A)
Format: biochemical
Conditions: WRN unwinding activity, 4 hr; Table 2; read-out: 4 hr UNW pIC50 (converted)
Protocol: Functional WRN unwinding activity can be measured using a fluorogenic plate based 384 well assay configured to measure the separation of labeled double stranded DNA substrate. Compounds were dosed out in neat DMSO with a 1:3 serial dilution scheme. 100 nL of compound was stamped into Greiner low volume black assay plates (Greiner Cat #784076) using the Echo Acoustic Dispenser to generate assay ready plates. All solutions were prepared in assay buffer (25 mM TRIS (pH8.0), 5 mM NaCl, 2 mM MgCl2, 1 mM DTT, 0.05% BSA) for this 10 μL low volume reaction. To prepare the solutions, a 2×WRN Enzyme cocktail was made containing 200 pM of recombinant full-length WRN protein (1-1432). A 2× Substrate cocktail was made to consist of both 200 μM ATP (any ultrapure ATP sample) and 12 nM of the fluorescent quenched labeled double stranded DNA oligomer (IDT Custom synthesis; 5′-5IABkFQ (SEQ ID NO. 1)/GCACTGGCCGTCGTTTTACGGTCGTGACT-3′ (SEQ ID NO. 2): 5′-TTTTTTACTTAACGACGGCCAGTGC (SEQ ID NO. 3)/36-TAMTSP/-3′ (SEQ ID NO. 4)). To start the reaction, 5 μL of assay buffer was added to a single column to serve as the low control. Following this, 5 μL of 2×WRN Enzyme was added in all wells except the buffer low control wells. The reaction plate was covered and incubated at ambient temperature for 4 hours to allow for time dependent inhibition if it existed. After 4 hours, the addition of 5 μL of 2×-ATP/DNA substrate cocktail was added across all wells of the assay plate. This initiated the reaction, as the plate was incubated at ambient temperature for 60 minutes for the unwinding reaction to occur. A 10 mM EDTA solution was prepared and added at 5 μL across the entire plate after 60 minutes to quench the samples for an endpoint measurement. Fluorescent intensity was measured using excitation and emission wavelengths of 525 nm and 598 nm, respectively. High florescent intensity (DMSO with buffer) represents full inhibition of unwinding activity and low florescent intensity (DMSO with enzyme) represents no inhibition of unwinding activity. The potency of the compounds was determined using a four-parameter inhibition model to generate pIC50, Hill Slope, maximum inhibition (see Table 2).

T1 sequence (Q14191 whole entry): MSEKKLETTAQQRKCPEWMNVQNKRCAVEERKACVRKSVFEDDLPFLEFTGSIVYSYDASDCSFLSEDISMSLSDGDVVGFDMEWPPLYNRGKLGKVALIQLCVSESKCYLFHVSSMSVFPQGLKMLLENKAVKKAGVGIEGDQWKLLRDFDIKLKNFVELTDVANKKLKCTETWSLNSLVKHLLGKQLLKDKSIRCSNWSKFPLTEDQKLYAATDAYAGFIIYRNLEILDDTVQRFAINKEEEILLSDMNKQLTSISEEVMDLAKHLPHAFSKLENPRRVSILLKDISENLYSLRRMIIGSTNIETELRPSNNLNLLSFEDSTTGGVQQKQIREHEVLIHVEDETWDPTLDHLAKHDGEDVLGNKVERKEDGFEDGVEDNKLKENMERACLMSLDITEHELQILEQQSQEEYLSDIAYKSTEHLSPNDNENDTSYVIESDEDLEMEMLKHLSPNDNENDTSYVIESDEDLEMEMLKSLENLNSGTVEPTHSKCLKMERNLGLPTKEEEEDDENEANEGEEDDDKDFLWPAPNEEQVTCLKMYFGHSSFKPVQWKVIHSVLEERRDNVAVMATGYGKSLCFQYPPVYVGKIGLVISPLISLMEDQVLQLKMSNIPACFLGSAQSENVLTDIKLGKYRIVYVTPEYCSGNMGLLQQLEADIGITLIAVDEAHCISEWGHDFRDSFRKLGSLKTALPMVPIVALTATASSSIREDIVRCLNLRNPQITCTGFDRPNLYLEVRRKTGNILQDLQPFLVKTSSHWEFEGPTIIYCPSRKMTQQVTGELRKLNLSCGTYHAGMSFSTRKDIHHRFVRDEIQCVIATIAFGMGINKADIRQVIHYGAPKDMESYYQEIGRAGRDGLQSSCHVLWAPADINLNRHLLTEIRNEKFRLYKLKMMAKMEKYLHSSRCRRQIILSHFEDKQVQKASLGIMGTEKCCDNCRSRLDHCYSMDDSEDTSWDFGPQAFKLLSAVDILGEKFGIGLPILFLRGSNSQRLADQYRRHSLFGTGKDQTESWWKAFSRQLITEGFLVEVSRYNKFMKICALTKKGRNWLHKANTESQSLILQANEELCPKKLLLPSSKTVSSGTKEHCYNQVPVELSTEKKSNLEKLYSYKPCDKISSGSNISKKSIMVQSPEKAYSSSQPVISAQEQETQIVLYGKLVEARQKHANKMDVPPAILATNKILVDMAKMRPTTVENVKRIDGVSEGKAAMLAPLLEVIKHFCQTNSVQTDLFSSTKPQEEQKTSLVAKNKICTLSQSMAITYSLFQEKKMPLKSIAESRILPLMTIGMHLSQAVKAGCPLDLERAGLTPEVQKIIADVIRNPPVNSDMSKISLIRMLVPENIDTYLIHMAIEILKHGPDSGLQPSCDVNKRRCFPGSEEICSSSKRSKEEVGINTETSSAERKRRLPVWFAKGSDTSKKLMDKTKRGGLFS

IC50 | SMILES
126 nM | Cc1nc2cc(S(=O)(=O)N(C)c3ccc([C@@H]4C[C@H](N)C[C@H](C(=O)Nc5ccc(C(F)(F)F)cc5F)[C@H]4C(=O)O)cc3)ccc2n1C (stereo in doubt) [Example 302, rel-(1R,2R,4R,6S)-4-amino-2-((2-fluoro-4-(trifluoromethyl)phenyl)carbamoyl)-6-(4-((N,1,2-trimethyl-1H-benzo[d]imidazole)-5-sulfonamido)phenyl)cyclohexane-1-carboxylic acid]
398 nM | Cc1nc2cc(S(=O)(=O)N(C)c3ccc([C@H]4CCC[C@@H](C(=O)N[C@H]5CC[C@@H](C6CCC6)CC5)[C@@H]4C(=O)O)cc3)ccc2n1C [Example 189, (1R,2R,6S)-2-(((1s,4S)-4-cyclobutylcyclohexyl)carbamoyl)-6-(4-((N,1,2-trimethyl-1H-benzo[d]imidazole)-5-sulfonamido)phenyl)cyclohexane-1-carboxylic acid]
200 nM | CC(=O)N1C[C@H](C(=O)Nc2ccc(C(F)(F)F)cc2F)[C@@H](C(=O)O)[C@H](c2ccc(N(C)S(=O)(=O)c3ccc4c(c3)nc(C)n4C)cc2)C1 (stereo in doubt) [Example 309, rel-(3R,4S,5R)-1-acetyl-3-((2-fluoro-4-(trifluoromethyl)phenyl)carbamoyl)-5-(4-((N,1,2-trimethyl-1H-benzo[d]imidazole)-5-sulfonamido)phenyl)piperidine-4-carboxylic acid]
158 nM | Cc1nc2cc(S(=O)(=O)Nc3ccc([C@H]4CCC[C@@H](C(=O)Nc5ccc(C(F)(F)F)cc5F)[C@@H]4C(=O)O)cc3)ccc2n1C (single isomer, unassigned) [Example 223]
631 nM | Cc1nc2cc(S(=O)(=O)N(C)c3ccc([C@H]4CCC[C@@H](C(=O)NC5CCC6(CCCC6)CC5)[C@@H]4C(=O)O)cc3)ccc2n1C [Example 184, (1R,2R,6S)-2-(spiro[4.5]decan-8-ylcarbamoyl)-6-(4-((N,1,2-trimethyl-1H-benzo[d]imidazole)-5-sulfonamido)phenyl)cyclohexane-1-carboxylic acid, formic acid salt]
200 nM | COc1cc(C(F)(F)F)ccc1[C@H]1CCC[C@@H](C(=O)Nc2ccc(C(F)(F)F)cc2F)[C@@H]1C(=O)O (racemic) [Example 237, rac-(1R,2R,6S)-2-((2-fluoro-4-(trifluoromethyl)phenyl)carbamoyl)-6-(2-methoxy-4-(trifluoromethyl)phenyl)cyclohexane-1-carboxylic acid]
501 nM | Cc1nc2cc(S(=O)(=O)N(C)c3ccc([C@@H]4C[C@H]5COC[C@H]5[C@H](C(=O)Nc5ccc(C(F)(F)F)cc5F)[C@H]4C(=O)O)cc3)ccc2n1C (stereo in doubt) [Example 394, rel-(3aR,4S,5S,6R,7aR)-4-((2-fluoro-4-(trifluoromethyl)phenyl)carbamoyl)-6-(4-((N,1,2-trimethyl-1H-benzo[d]imidazole)-5-sulfonamido)phenyl)octahydroisobenzofuran-5-carboxylic acid]
5.01 nM | Cc1nc2cc(S(=O)(=O)N(C)c3ccc([C@H]4CCC[C@@H](C(=O)NC56CC(C7CCC7)(C5)C6)[C@@H]4C(=O)O)cc3)ccc2n1C [Example 198, (1R,2R,6S)-2-((3-cyclobutylbicyclo[1.1.1]pentan-1-yl)carbamoyl)-6-(4-((N,1,2-trimethyl-1H-benzo[d]imidazole)-5-sulfonamido)phenyl)cyclohexane-1-carboxylic acid]
631 nM | Cc1nc2cc(S(=O)(=O)N(C)c3ccc([C@@H]4C[C@@H](N5CCOCC5)C[C@H](C(=O)Nc5ccc(C(F)(F)F)cc5F)[C@H]4C(=O)O)cc3)ccc2n1C (relative stereo) [Example 339, rel-(1R,2R,4S,6S)-2-((2-fluoro-4-(trifluoromethyl)phenyl)carbamoyl)-4-morpholino-6-(4-((N,1,2-trimethyl-1H-benzo[d]imidazole)-5-sulfonamido)phenyl)cyclohexane-1-carboxylic acid]
631 nM | Cc1nc2cc(S(=O)(=O)N(C)c3ccc([C@@H]4CNC[C@H](C(=O)Nc5ccc(C(F)(F)F)cc5F)[C@H]4C(=O)O)cc3)ccc2n1C (single isomer, unassigned) [Example 307]
5010 nM | Cc1nc2cc(S(=O)(=O)N(C)c3ccc([C@H]4CCC[C@@H](C(=O)NC56CC(C)(C5)C6)[C@@H]4C(=O)O)cc3)ccc2n1C (racemic) [Example 178]
20 nM | CCC[C@H]1CC[C@@H](NC(=O)[C@@H]2CCC[C@H](c3ccc(N(C)S(=O)(=O)c4ccc5c(c4)nc(C)n5C)cc3)[C@H]2C(=O)O)CC1 [Example 195, (1R,2R,6S)-2-(((1r,4R)-4-propylcyclohexyl)carbamoyl)-6-(4-((N,1,2-trimethyl-1H-benzo[d]imidazole)-5-sulfonamido)phenyl)cyclohexane-1-carboxylic acid]

The next lines start with the molecule.

SMILES | IC50
CN(c1ccc([C@H]2CCC[C@@H](C(=O)Nc3ccc(C(F)(F)F)cc3F)[C@@H]2C(=O)O)cc1)S(=O)(=O)c1ccc2c(c1)ncn2C (single isomer, unassigned) [Example 87] | 316 nM
O=C(O)[C@@H]1[C@@H](c2ccc(-c3cccc(COC4CCOCC4)c3)cc2)CCC[C@H]1C(=O)Nc1ccc(C(F)(F)F)cc1F [Example 21, (1R,2R,6S)-2-((2-fluoro-4-(trifluoromethyl)phenyl)carbamoyl)-6-(3′-(((tetrahydro-2H-pyran-4-yl)oxy)methyl)-[1,1′-biphenyl]-4-yl) cyclohexane-1-carboxylic acid] | 7940 nM
Cc1nc2cc(S(=O)(=O)N(C)c3ccc([C@H]4CCC[C@@H](C(=O)Nc5ccc(C(C)C)cc5)[C@H]4C(=O)O)cc3)ccc2n1C (single isomer, unassigned) [Example 76] | 1260 nM
O=C(O)[C@@H]1[C@@H](c2ccc([C@H]3CCCOCC3)cc2)CCC[C@H]1C(=O)Nc1ccc(C(F)(F)F)cc1F (racemic) [Example 59, 1:1 Mixture of (1R,2R,6S)-2-((2-fluoro-4-(trifluoromethyl)phenyl)carbamoyl)-6-(4-((S)-oxepan-4-yl)phenyl)cyclohexane-1-carboxylic acid AND (1R,2R,6S)-2-((2-fluoro-4-(trifluoromethyl)phenyl)carbamoyl)-6-(4-((R)-oxepan-4-yl)phenyl)cyclohexane-1-carboxylic acid] | 794 nM
O=C(O)[C@@H]1[C@@H](c2ccc(-c3ncsc3CO)cc2)CCC[C@H]1C(=O)Nc1ccc(C(F)(F)F)cc1F [Example 52, (1R,2R,6S)-2-((2-fluoro-4-(trifluoromethyl)phenyl)carbamoyl)-6-(4-(5-(hydroxymethyl)thiazol-4-yl)phenyl)cyclohexane-1-carboxylic acid] | 794 nM
O=C(O)[C@@H]1[C@@H](c2ccc(-c3cnn4c3CCC4)cc2)CCC[C@H]1C(=O)Nc1ccc(C(F)(F)F)cc1F [Example 17, (1R,2S,6R)-2-(4-(5,6-dihydro-4H-pyrrolo[1,2-b]pyrazol-3-yl)phenyl)-6-((2-fluoro-4-(trifluoromethyl)phenyl)carbamoyl)cyclohexane-1-carboxylic acid] | 20 nM
CCO[C@@H]1C[C@H](C(=O)Nc2ccc(C(F)(F)F)cc2F)[C@@H](C(=O)O)[C@H](c2ccc(N(C)S(=O)(=O)c3ccc4c(c3)nc(C)n4C)cc2)C1 (single isomer, unassigned) [Example 137] | 251 nM
O=C(O)[C@@H]1[C@@H](c2ccc(-c3nncc4ccoc34)cc2)CCC[C@H]1C(=O)Nc1ccc(C(F)(F)F)cc1F [Example 45, (1R,2R,6S)-2-((2-fluoro-4-(trifluoromethyl)phenyl)carbamoyl)-6-(4-(furo[2,3-d]pyridazin-7-yl)phenyl)cyclohexane-1-carboxylic acid] | 126 nM
O=C(O)[C@@H]1[C@@H](c2ccc(-c3ncnc4sccc34)cc2)CCC[C@H]1C(=O)Nc1ccc(C(F)(F)F)cc1F [Example 34, (1R,2R,6S)-2-((2-fluoro-4-(trifluoromethyl)phenyl)carbamoyl)-6-(4-(thieno[2,3-d]pyrimidin-4-yl)phenyl)cyclohexane-1-carboxylic acid] | 2510 nM
Cn1cc(-c2ccc([C@H]3CCC[C@@H](C(=O)Nc4ccc(C(F)(F)F)cc4F)[C@@H]3C(=O)O)cc2)cn1 [Example 12, (1R,2R,6S)-2-((2-fluoro-4-(trifluoromethyl)phenyl)carbamoyl)-6-(4-(1-methyl-1H-pyrazol-4-yl)phenyl)cyclohexane-1-carboxylic acid] | 63.1 nM
O=C(O)[C@@H]1[C@@H](c2ccc(-c3ccn[nH]3)cc2)CCC[C@H]1C(=O)Nc1ccc(C(F)(F)F)cc1F [Example 5, (1R,2S,6R)-2-(4-(1H-pyrazol-5-yl)phenyl)-6-((2-fluoro-4-(trifluoromethyl)phenyl)carbamoyl)cyclohexane-1-carboxylic acid] | 20 nM

Source: US12662451B2, “Chemical compounds and uses thereof” (GLAXOSMITHKLINE INTELLECTUAL PROPERTY (NO.4) LIMITED, priority 2023, dated 2026)
